Laboratory results reported in the supplement of paper PMC10307832.

What was measured:
Experiment in all cases: relative viability (nuclei count vs DMSO), 5 days (fraction); higher = more cells survive
Pictilisib + Lapatinib = compound: CS(=O)(=O)N1CCN(Cc2cc3nc(-c4cccc5[nH]ncc45)nc(N4CCOCC4)c3s2)CC1 [Pictilisib] + CS(=O)(=O)CCNCc1ccc(-c2ccc3ncnc(Nc4ccc(OCc5cccc(F)c5)c(Cl)c4)c3c2)o1 [Lapatinib] (partner 2 µM)
Method in brief: (§1)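 Lung cancer cell lines in 1536-well plates were dosed by pin tool the day after seeding, either with one drug alone or with a fixed anchor-drug dose plus five library-drug doses (not always all listed) in √10 steps. After 5 days, cells were fixed and their nuclei stained in one step (final 0.05% Triton X-100, 1% formaldehyde, 1 ug/ml Hoechst), then counted on 4× images. Relative viability is the nuclei count in treated wells divided by that in vehicle wells. Values are medians of duplicate plates.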

MK-2206 + Trametinib = compound: NC1(c2ccc(-c3nc4ccn5c(=O)[nH]nc5c4cc3-c3ccccc3)cc2)CCC1 [MK-2206] + CC(=O)Nc1cccc(-n2c(=O)n(C3CC3)c(=O)c3c(Nc4ccc(I)cc4F)n(C)c(=O)c(C)c32)c1 [Trametinib] (partner 0.02 µM)
Method in brief: as §1

MK-2206 + Foretinib = compound: NC1(c2ccc(-c3nc4ccn5c(=O)[nH]nc5c4cc3-c3ccccc3)cc2)CCC1 [MK-2206] + COc1cc2c(Oc3ccc(NC(=O)C4(C(=O)Nc5ccc(F)cc5)CC4)cc3F)ccnc2cc1OCCCN1CCOCC1 [Foretinib] (partner 0.25 µM)
Method in brief: as §1

MK-2206 + Linsitinib = compound: NC1(c2ccc(-c3nc4ccn5c(=O)[nH]nc5c4cc3-c3ccccc3)cc2)CCC1 [MK-2206] + C[C@]1(O)C[C@@H](c2nc(-c3ccc4ccc(-c5ccccc5)nc4c3)c3c(N)nccn32)C1 [Linsitinib] (partner 1 µM)
Method in brief: as §1

MK-2206 + Alpelisib = compound: NC1(c2ccc(-c3nc4ccn5c(=O)[nH]nc5c4cc3-c3ccccc3)cc2)CCC1 [MK-2206] + Cc1nc(NC(=O)N2CCC[C@H]2C(N)=O)sc1-c1ccnc(C(C)(C)C(F)(F)F)c1 [Alpelisib] (partner 2 µM)
Method in brief: as §1

| Cell Line | relative viability (Pictilisib + Lapatinib; first compound 0.02 µM) | relative viability (Pictilisib + Lapatinib; first compound 0.06325 µM) | relative viability (Pictilisib + Lapatinib; first compound 0.6325 µM) | relative viability (Pictilisib + Lapatinib; first compound 2 µM) | relative viability (MK-2206 + Trametinib; first compound 0.01 µM) | relative viability (MK-2206 + Trametinib; first compound 0.03162 µM) | relative viability (MK-2206 + Trametinib; first compound 0.3162 µM) | relative viability (MK-2206 + Trametinib; first compound 1 µM) | relative viability (MK-2206 + Foretinib; first compound 0.01 µM) | relative viability (MK-2206 + Foretinib; first compound 0.03162 µM) | relative viability (MK-2206 + Foretinib; first compound 0.3162 µM) | relative viability (MK-2206 + Foretinib; first compound 1 µM) | relative viability (MK-2206 + Linsitinib; first compound 0.01 µM) | relative viability (MK-2206 + Linsitinib; first compound 0.03162 µM) | relative viability (MK-2206 + Linsitinib; first compound 0.3162 µM) | relative viability (MK-2206 + Linsitinib; first compound 1 µM) | relative viability (MK-2206 + Alpelisib; first compound 0.01 µM) | relative viability (MK-2206 + Alpelisib; first compound 0.03162 µM) | relative viability (MK-2206 + Alpelisib; first compound 0.3162 µM) | relative viability (MK-2206 + Alpelisib; first compound 1 µM) |
| --- | --- | --- | --- | --- | --- | --- | --- | --- | --- | --- | --- | --- | --- | --- | --- | --- | --- | --- | --- | --- |
| LK-2 | 0.947 | 1 | 0.618 | 0.405 | 0.826 | 0.775 | 0.694 | 0.602 | 1.57 | 1.19 | 1.34 | 1.39 | 0.511 | 0.641 | 0.627 | 0.699 | 0.977 | 1.42 | 1.13 | 1.06 |
| LOU-NH91 | 0.787 | 0.733 | 0.621 | 0.525 | 0.793 | 0.817 | 0.77 | 0.686 | 0.984 | 0.958 | 0.927 | 0.917 | 0.939 | 1.01 | 0.941 | 0.844 | 0.73 | 0.796 | 0.667 | 0.682 |
| LU99A | 0.98 | 1.04 | 0.574 | 0.372 | 0.524 | 0.537 | 0.473 | 0.553 | 0.805 | 0.774 | 0.847 | 0.816 | 0.51 | 0.506 | 0.523 | 0.421 | 0.569 | 0.559 | 0.396 | 0.472 |
| LXF-289 | 0.91 | 0.929 | 0.925 | 0.793 | 0.65 | 0.699 | 0.68 | 0.663 | 0.932 | 0.941 | 1.01 | 1.05 | 0.954 | 0.988 | 0.966 | 0.99 | 1.06 | 1.09 | 1.02 | 1 |
| NCI-H23 | 1.17 | 1.45 | 0.952 | 0.496 | 0.267 | 0.342 | 0.345 | 0.299 | 1.1 | 1.11 | 1.05 | 0.902 | 0.583 | 0.625 | 0.58 | 0.628 | 0.705 | 0.805 | 0.784 | 0.779 |
| NCI-H322M | 0.57 | 0.588 | 0.493 | 0.423 | 0.475 | 0.505 | 0.495 | 0.546 | 0.871 | 1.11 | 1.1 | 1.01 | 0.912 | 0.949 | 0.869 | 0.942 | 0.864 | 0.79 | 0.732 | 0.701 |
| NCI-H358 | 0.49 | 0.503 | 0.311 | 0.29 | 0.146 | 0.145 | 0.132 | 0.117 | 0.767 | 0.841 | 0.661 | 0.685 | 0.79 | 0.707 | 0.542 | 0.602 | 0.9 | 0.837 | 0.65 | 0.563 |
